# In PubChem BioAssay (NCI):
#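 1) Cells in 96-well plates. 2) Compound, 48 h, 5 concentrations. 3) Linear interpolation between surrounding doses. 4) Unreached endpoint = highest concentration. At the GI50, growth is halved. At the TGI there is no net growth.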
# Key:
# Assay in all cases: NCI-60 cell line screen, 48 h
# 786-0 renal = test system: 786-0 renal
# A498 renal = test system: A498 renal
# A549 NSCLC = test system: A549 NSCLC
# ACHN renal = test system: ACHN renal
# BT-549 breast = test system: BT-549 breast
# CAKI-1 renal = test system: CAKI-1 renal
# CCRF-CEM leukemia = test system: CCRF-CEM leukemia
# COLO 205 colon = test system: COLO 205 colon
# DU-145 prostate = test system: DU-145 prostate
# HCC-2998 colon = test system: HCC-2998 colon
# HCT-116 colon = test system: HCT-116 colon
# HCT-15 colon = test system: HCT-15 colon
# HL-60(TB) leukemia = test system: HL-60(TB) leukemia
# HOP-62 NSCLC = test system: HOP-62 NSCLC
# HS 578T breast = test system: HS 578T breast
# HT29 colon = test system: HT29 colon
# IGROV1 ovarian = test system: IGROV1 ovarian
# K-562 leukemia = test system: K-562 leukemia
# KM12 colon = test system: KM12 colon
# LOX IMVI melanoma = test system: LOX IMVI melanoma
# MALME-3M melanoma = test system: MALME-3M melanoma
# MCF7 breast = test system: MCF7 breast
# MDA-MB-231 breast = test system: MDA-MB-231 breast
# MOLT-4 leukemia = test system: MOLT-4 leukemia
# NCI-H226 lung = test system: NCI-H226 lung
# NCI-H23 lung = test system: NCI-H23 lung
# NCI-H460 lung = test system: NCI-H460 lung
# NCI-H522 lung = test system: NCI-H522 lung
# NCI/ADR-RES ovarian = test system: NCI/ADR-RES ovarian
# OVCAR-3 ovarian = test system: OVCAR-3 ovarian
# OVCAR-4 ovarian = test system: OVCAR-4 ovarian
# OVCAR-5 ovarian = test system: OVCAR-5 ovarian
# OVCAR-8 ovarian = test system: OVCAR-8 ovarian
# PC-3 prostate = test system: PC-3 prostate
# RPMI-8226 leukemia = test system: RPMI-8226 leukemia
# RXF 393 renal = test system: RXF 393 renal
# SF-268 CNS = test system: SF-268 CNS
# SK-MEL-2 melanoma = test system: SK-MEL-2 melanoma
# SK-MEL-28 melanoma = test system: SK-MEL-28 melanoma
# SK-MEL-5 melanoma = test system: SK-MEL-5 melanoma
# SK-OV-3 ovarian = test system: SK-OV-3 ovarian
# SN12C renal = test system: SN12C renal
# SNB-19 CNS = test system: SNB-19 CNS
# SNB-75 CNS = test system: SNB-75 CNS
# SR leukemia = test system: SR leukemia
# SW-620 colon = test system: SW-620 colon
# T-47D breast = test system: T-47D breast
# TK-10 renal = test system: TK-10 renal
# U251 CNS = test system: U251 CNS
# UACC-257 melanoma = test system: UACC-257 melanoma
# UACC-62 melanoma = test system: UACC-62 melanoma
# UO-31 renal = test system: UO-31 renal
structure (smiles),measurement,setting,value
CCOC(=O)c1cc2c(n1Cc1cc(OC)c(OC)c(OC)c1)-c1oncc1CCC2,GI50,786-0 renal,583 nM
same,TGI,786-0 renal,> 35900 nM
same,GI50,A498 renal,60.2 nM
same,TGI,A498 renal,435 nM
same,GI50,A549 NSCLC,234 nM
same,TGI,A549 NSCLC,65400 nM
same,GI50,ACHN renal,296 nM
same,TGI,ACHN renal,> 59900 nM
same,GI50,BT-549 breast,647 nM
same,TGI,BT-549 breast,22000 nM
same,GI50,CAKI-1 renal,105 nM
same,TGI,CAKI-1 renal,> 27800 nM
same,GI50,CCRF-CEM leukemia,318 nM
same,TGI,CCRF-CEM leukemia,5380 nM
same,GI50,COLO 205 colon,109 nM
same,TGI,COLO 205 colon,495 nM
same,GI50,DU-145 prostate,302 nM
same,TGI,DU-145 prostate,6870 nM
same,GI50,HCC-2998 colon,335 nM
same,TGI,HCC-2998 colon,5170 nM
same,GI50,HCT-116 colon,235 nM
same,TGI,HCT-116 colon,> 100000 nM
same,GI50,HCT-15 colon,186 nM
same,TGI,HCT-15 colon,> 100000 nM
same,GI50,HL-60(TB) leukemia,221 nM
same,TGI,HL-60(TB) leukemia,765 nM
same,GI50,HOP-62 NSCLC,447 nM
same,TGI,HOP-62 NSCLC,37200 nM
same,GI50,HS 578T breast,343 nM
same,TGI,HS 578T breast,> 100000 nM
same,GI50,HT29 colon,138 nM
same,TGI,HT29 colon,2670 nM
same,GI50,IGROV1 ovarian,147 nM
same,TGI,IGROV1 ovarian,5360 nM
same,GI50,K-562 leukemia,97.3 nM
same,TGI,K-562 leukemia,> 100000 nM
same,GI50,KM12 colon,88.4 nM
same,TGI,KM12 colon,> 55400 nM
same,GI50,LOX IMVI melanoma,401 nM
same,TGI,LOX IMVI melanoma,> 35700 nM
same,GI50,MALME-3M melanoma,61 nM
same,TGI,MALME-3M melanoma,> 52300 nM
same,GI50,MCF7 breast,58.9 nM
same,TGI,MCF7 breast,> 66500 nM
same,GI50,MDA-MB-231 breast,372 nM
same,TGI,MDA-MB-231 breast,2460 nM
same,GI50,MOLT-4 leukemia,406 nM
same,TGI,MOLT-4 leukemia,> 44800 nM
same,GI50,NCI-H226 lung,1270 nM
same,TGI,NCI-H226 lung,> 53000 nM
same,GI50,NCI-H23 lung,388 nM
same,TGI,NCI-H23 lung,> 43200 nM
same,GI50,NCI-H460 lung,284 nM
same,TGI,NCI-H460 lung,13700 nM
same,GI50,NCI-H522 lung,20.8 nM
same,TGI,NCI-H522 lung,73 nM
same,GI50,NCI/ADR-RES ovarian,61.4 nM
same,TGI,NCI/ADR-RES ovarian,> 100000 nM
same,GI50,OVCAR-3 ovarian,90.1 nM
same,TGI,OVCAR-3 ovarian,399 nM
same,GI50,OVCAR-4 ovarian,1360 nM
same,TGI,OVCAR-4 ovarian,> 67400 nM
same,GI50,OVCAR-5 ovarian,481 nM
same,TGI,OVCAR-5 ovarian,> 100000 nM
same,GI50,OVCAR-8 ovarian,332 nM
same,TGI,OVCAR-8 ovarian,> 49700 nM
same,GI50,PC-3 prostate,209 nM
same,TGI,PC-3 prostate,> 65300 nM
same,GI50,RPMI-8226 leukemia,420 nM
same,TGI,RPMI-8226 leukemia,21900 nM
same,GI50,RXF 393 renal,126 nM
same,TGI,RXF 393 renal,> 100000 nM
same,GI50,SF-268 CNS,657 nM
same,TGI,SF-268 CNS,> 60200 nM
same,GI50,SK-MEL-2 melanoma,84.1 nM
same,TGI,SK-MEL-2 melanoma,545 nM
same,GI50,SK-MEL-28 melanoma,255 nM
same,TGI,SK-MEL-28 melanoma,> 54500 nM
same,GI50,SK-MEL-5 melanoma,207 nM
same,TGI,SK-MEL-5 melanoma,7010 nM
same,GI50,SK-OV-3 ovarian,185 nM
same,TGI,SK-OV-3 ovarian,3550 nM
same,GI50,SN12C renal,628 nM
same,TGI,SN12C renal,> 40100 nM
same,GI50,SNB-19 CNS,604 nM
same,TGI,SNB-19 CNS,> 100000 nM
same,GI50,SNB-75 CNS,111 nM
same,TGI,SNB-75 CNS,> 61700 nM
same,GI50,SR leukemia,46.4 nM
same,TGI,SR leukemia,5500 nM
same,GI50,SW-620 colon,186 nM
same,TGI,SW-620 colon,> 100000 nM
same,GI50,T-47D breast,373 nM
same,TGI,T-47D breast,53400 nM
same,GI50,TK-10 renal,64900 nM
same,TGI,TK-10 renal,> 100000 nM
same,GI50,U251 CNS,214 nM
same,TGI,U251 CNS,5010 nM
same,GI50,UACC-257 melanoma,177 nM
same,TGI,UACC-257 melanoma,28500 nM
same,GI50,UACC-62 melanoma,66.6 nM
same,TGI,UACC-62 melanoma,> 40300 nM
same,GI50,UO-31 renal,303 nM
same,TGI,UO-31 renal,> 67400 nM
